Measurements as given in PubChem BioAssay AID489024 (Sanford-Burnham Center for Chemical Genomics, 2010).
Active and inactive are the calls of the source.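 The calls were made as follows: active = compounds whose mean EC50, the dose giving half the maximal reporter activation, is at or below a set limit; inactive = the rest.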

target: CHO-CHOP luciferase reporter, UPR activation, luminescence; assay: activators of PERK-eIF2a-CHOP UPR arm, confirmation, CHO-CHOP cells, luciferase luminescence (AID 489024);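 also: compounds added alone to reporter cells with no tunicamycin stress co-treatment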

Compound	EC50
CC(C)N1CSC(=S)N(Cc2ccccc2)C1	10.6 µM
CCOC(=O)/C(=C\c1ccc(Cl)cc1)c1nc2sc(C)c(C)c2c(=O)[nH]1	> 80 µM (inactive)
O=C(NC(=S)Nc1ccc(NC(=O)c2cccs2)cc1)c1cc2ccccc2o1	inactive
Cc1ccccc1CS(=O)(=O)c1ncc(Cl)c(C(=O)Nc2ccc(F)cc2)n1	> 80 µM (inactive)
COc1cccc(/C=N/Nc2nc(Nc3ccccc3)nc(-n3nc(C)cc3C)n2)c1O	4.28 µM
O=C1NC(=O)N(Cc2ccccc2Cl)C(=O)/C1=C/c1cccs1	15.9 µM
CC(C)(C)C(=O)N1CCN(c2ccc(NC(=O)c3ccc([N+](=O)[O-])o3)cc2)CC1	0.75 µM
O=C1Nc2ccc(Br)cc2/C1=N/N=C/C1=C(N2CCOCC2)C(=C\c2ccccc2)/CC1	> 80 µM (inactive)
CCOC(=O)C(CC)(CC)C(=O)/C=C/c1cccc(Br)c1	11.8 µM
CC1(C)CC(=O)C2=C(C1)Oc1nc3ccccc3cc1C2C(C#N)C#N (stereo unspecified)	> 80 µM (inactive)
Oc1ccc(/C=N/Nc2ccnc3cc(Cl)ccc23)cc1O	6.62 µM
COc1ccc(C(c2c(C)[nH]n(C(N)=S)c2=O)C(C#N)C#N)cc1 (stereo unspecified)	inactive
FC(F)(F)c1nnc2c(Sc3ccc(Cl)cc3)nc3ccccc3n12	4.12 µM
Nc1c(C(=O)Nc2ccc(S(=O)(=O)N3CCCC3)cc2)sc2nc3ccc(OC(F)(F)F)cc3cc12	> 80 µM (inactive)
Oc1c(Cl)cc(CN2CCCCC2)c2cccnc12	15.2 µM
c1ccc(-c2nc(N3CCCCCC3)c3ccccc3n2)nc1	inactive
COCCN1CSC(=S)N(Cc2ccco2)C1	> 80 µM (inactive)
Oc1c(CN2CCc3ccccc3C2)cc(Cl)c2cccnc12	12 µM
CCc1nn(-c2cc(Oc3cccc4ccccc34)nc(-c3ccccc3)n2)c(N)c1C#N	inactive
O=C(C#Cc1ccccc1)c1cccc([N+](=O)[O-])c1	7.41 µM
N#CC1=C(N)OC2=C(CC/C2=C\c2ccccc2)C1c1ccccc1 (stereo unspecified)	6.51 µM
Cc1cc(C)cc(NC(=O)/C(C#N)=C/c2cn(CC(=O)NCc3ccco3)c3ccccc23)c1	7.54 µM

Compound	EC50
CCOC(=O)/C=c1\s/c(=C\c2ccc3cc(OC)ccc3c2)c(=O)n1CC(=O)NCC1CCCO1 (stereo unspecified)	10.7 µM
CN(C)CC(C(=O)c1ccccc1)c1ccccc1 (stereo unspecified)	6.77 µM
COc1cc(/C=C/C(=O)c2ccc3c(c2)OCCO3)cc(Br)c1OCC(=O)N(C)C	7 µM
Cc1cc(C)nc(S/C=C/C(=O)c2ccccc2)n1	6.72 µM
O=C(Nc1nc(-c2ccc(F)c(F)c2)cs1)Nc1ccc(F)cc1F	> 80 µM (inactive)
O=C(N/N=C/c1ccccn1)c1cc(-c2ccc(Cl)cc2)nc2ccccc12	2.51 µM
CC1(C)CC(=O)C(=Cc2cn(-c3ccccc3)nc2-c2ccc(Cl)cc2)C(=O)C1	6.07 µM
CC1=NOC(=O)/C1=C/c1ccc(-c2ccc(Cl)cc2)o1	9.98 µM
COc1ccc(-c2nc(-c3ccccc3)nc(Cl)c2C#N)cc1	13.5 µM
CCOc1ccc(N2C(=O)CC(N(O)c3ccccc3)C2=O)cc1 (stereo unspecified)	9.63 µM
COc1ccc2c(C(=O)CCl)c[nH]c2c1	6.36 µM
Oc1ccc(/C=N/Nc2cc(N3CCOCC3)nc(N3CCOCC3)n2)cc1O	> 80 µM (inactive)
O=C(/C=C/c1ccco1)NC(=S)Nc1ccc(O)c(-c2nc3ccccc3s2)c1	11.8 µM
Cc1cnc(NC(=O)c2cc(S(=O)(=O)N(C)C)ccc2N2CCCC2)s1	6.42 µM
CCN1CSC(=S)N(Cc2ccccc2)C1	8.48 µM
Cc1nc(SCC(=O)Nc2ccc(F)cc2)c(C#N)c(C)c1CC(=O)c1ccc(Br)cc1	> 80 µM (inactive)
COc1ccc(Cn2c(SCc3ccc(C)cc3)nc3cc(OC)c(OC)cc3c2=N)cc1Cl	14 µM
O=C1/C(=C/c2ccccc2[N+](=O)[O-])COc2ccccc21	6.15 µM
COc1cc(C(=O)Sc2ccc(Cl)cc2)cc(OC)c1OC	15 µM
Cc1ccc(N2C(=O)NC(=O)/C(=C/c3cnn(-c4ccc(C)cc4)c3)C2=O)cc1	16.9 µM
O=C(N/N=C/c1cccc2cccnc12)c1ccccc1O	18.1 µM
COc1cc(/C=C(/C#N)c2nc3ccccc3[nH]2)ccc1OCC(=O)Nc1ccccc1C(C)C	8.27 µM

Compound	EC50
CCCCCCCCCn1c2c(c(=N)c3c1CCC3)CCC2	> 80 µM (inactive)
COC(=O)[C@@H]1[C@@H](C#N)C2(c3ccccc3-c3ccccc32)N(c2ccc(Cl)cc2)N1C#N	13 µM
CC(C)c1ccc(/C=C(\c2nc3ccccc3[nH]2)S(=O)(=O)c2ccccc2)cc1	9.49 µM
Cc1ccc(Sc2ccc(/C=C3/C(=O)NN(c4ccccc4)C3=O)o2)cc1	inactive
Cc1ccc(C(=O)Cn2c(C(=O)/C=C/c3ccccc3)nc3ccccc32)cc1	13.7 µM
O=C(Nc1nccs1)c1cccc(N2C(=O)c3cccc4c([N+](=O)[O-])ccc(c34)C2=O)c1	11.5 µM
CC(=O)Nc1ccc(N=Cc2c(O)c(C(=O)Nc3ccccc3)cc3ccccc23)cc1	inactive
CCCCCC(=O)Nc1ccc(C(=O)N/N=C/c2ccc([N+](=O)[O-])cc2)cc1	inactive
CS(=O)(=O)c1nc(-c2ccccc2)cc(-c2ccccc2)c1C#N	15.3 µM
O=C(/C=C/c1ccc([N+](=O)[O-])cc1)/C=C/c1ccco1	6.61 µM
Cc1cc(C(=O)CCl)c(C)n1-c1cccc(S(=O)(=O)N2CCOCC2)c1	7.44 µM
O=C(N/N=C(\c1ccccc1)c1cccnc1)c1cccc(F)c1	9.74 µM
Brc1ccccc1CN1CCN(Cc2c[nH]c3ccccc23)CC1	7.72 µM
COc1cccc(N=Nc2ccc(O)c3ncccc23)c1	12.7 µM
S=c1[nH]nc(-c2cc(-c3ccccc3)n[nH]2)n1/N=C/C(Br)=C/c1ccccc1	7.79 µM
Cc1ccccc1NC(=O)c1ccc(N/N=C/c2ccccc2O)c([N+](=O)[O-])c1	9.06 µM
Cc1ccc(NC(=O)c2ccc([N+](=O)[O-])o2)cc1S(=O)(=O)N1CCOCC1	11.8 µM
Cc1cccc(C)c1NC(=O)c1nc(S(=O)(=O)Cc2ccccc2)ncc1Cl	12.3 µM
S=C1SCN(Cc2ccco2)CN1Cc1ccco1	11.4 µM
CCN(CC)S(=O)(=O)c1cc(NC(=O)Cn2ncc(Cl)c(Cl)c2=O)ccc1C	8.03 µM
Cc1ccc(-n2nc3cc(C)c(NC(=S)NC(=O)/C=C/c4ccco4)cc3n2)cc1	16.2 µM
Cc1cccc(Nc2nc3c(S(=O)(=O)c4ccccc4)nnn3c3ccccc23)c1C	inactive

Compound	EC50
COc1ccc(O)c(/C=N/Nc2nc(Nc3ccccc3)nc(-n3nc(C)cc3C)n2)c1	5.05 µM
Cc1cc(C)c(C(CC(=O)c2cccs2)C(C#N)C#N)c(C)c1 (stereo unspecified)	14.2 µM
CCN(CC)S(=O)(=O)c1ccc(N/N=C(\C)c2ccc3c(c2)OCO3)c([N+](=O)[O-])c1	inactive
COc1ccc(NS(=O)(=O)c2ccc3ccccc3c2)c2ncccc12	9.28 µM
O=C(CCl)Nc1cccc(S(=O)(=O)NC2=NCCCCC2)c1	17.8 µM
Cc1ccc(-c2nn3c(C)nnc3s2)cc1NC(=O)c1ccc(-c2ccc(Cl)cc2Cl)o1	14 µM
Cc1ccc(C)c2sc(N3CCN(C(=O)c4ccc([N+](=O)[O-])o4)CC3)nc12	18.9 µM
COc1ccc(C(=O)Nc2ccccc2C(=O)N/N=C/c2ccccn2)cc1OC	6.44 µM
CC1CCCCC1N1CN=C(Nc2nc3ccccc3s2)NC1 (stereo unspecified)	inactive
CC(C)c1ccc(N2C(=O)NC(=O)/C(=C\C=C\c3ccco3)C2=O)cc1	9.13 µM
C/C(=N\Nc1ncnc2sc(C)c(C)c12)c1ccccn1	5.59 µM
C/C(CCC12CC3CC(CC(C3)C1)C2)=N\NC(N)=S	16.5 µM
COC(=O)C1=C(C)N(c2ccc(C)c(C)c2)/C(=C/c2cccs2)C1=O	> 80 µM (inactive)
O=S1(=O)Nc2c(ccc3cccnc23)-c2ccccc21	3.42 µM
COc1ccc(C(=O)/C=C2/C(=O)Nc3ccccc32)c(OC)c1	8.48 µM
O=c1[nH]c(-c2ccc(-c3cccc(Cl)c3)o2)nc2ccccc12	12.9 µM
CCOC(=O)N1CCN(S(=O)(=O)c2ccc(C(=O)Nc3nc4c(s3)CC(C)CC4)cc2)CC1 (stereo unspecified)	> 80 µM (inactive)
O=C(Nc1cccc(S(=O)(=O)N2CCCCC2)c1)c1ccc([N+](=O)[O-])o1	5.08 µM
COc1cc(NC(=O)c2cncc(-c3ccc(C#N)cc3)c2)cc(C(=O)Nc2cccc(C(F)(F)F)c2)c1	inactive
COc1ccc(/C=N/Nc2cc(C)nc(-n3nc(C)cc3C)n2)cc1	10.4 µM
O=C1CC(c2cccc(Cl)c2)CC(O)=C1C=Nc1ccccc1 (stereo unspecified)	16.2 µM
C/C(=N/NC(=O)c1ccc(C(C)(C)C)cc1)c1ccccn1	2.88 µM

Compound	EC50
CCCCC(CC)CN=C(N)NC(N)=NCCCCCCN=C(N)NC(N)=NCC(CC)CCCC (stereo unspecified)	> 80 µM (inactive)
COc1cccc(N=Cc2c(O)c3ccccc3oc2=O)c1	8.69 µM
COc1ccc(C(C[N+](=O)[O-])n2nc(C)cc2C)cc1 (stereo unspecified)	9.15 µM
CSc1nnc(NC(=O)c2nc(S(=O)(=O)Cc3ccccc3)ncc2Cl)s1	> 80 µM (inactive)
COc1cc(C(Nc2ccccn2)c2ccc3ccc(C)nc3c2O)cc(OC)c1O (stereo unspecified)	6.83 µM
COC(=O)c1ccc(-n2c(C)cc(C(=O)CCl)c2C)cc1	4.62 µM
COC(=O)c1cc(=O)n(Cc2ccc3c(c2)OCO3)c(=Nc2ccc(F)c(Cl)c2)s1	> 80 µM (inactive)
CC1=C(/C=C/C(C)=C/C=C/C(C)=C/C(=O)Nc2ccc(O)cc2)C(C)(C)CCC1	14.3 µM
Cn1nnnc1Sc1ncnc2scc(-c3ccc([N+](=O)[O-])cc3)c12	12.3 µM
COc1ccc(-c2cc(C(F)F)n3ncc(C(=O)n4ccnc4C)c3n2)cc1	13.3 µM
Oc1c(CN2CCN(c3ccc(F)cc3)CC2)cc(Cl)c2cccnc12	14 µM
Cc1cc(C(=O)CCl)c(C)n1CC1COc2ccccc2O1 (stereo unspecified)	8.22 µM
CN1C(=O)/C(=C/c2cccn2-c2ccc3ccccc3c2)C(=O)NC1=S	11.7 µM
O=[N+]([O-])c1ccc(C=Nc2ccc(Cl)cc2Cl)s1	13.9 µM
O=C(COc1ccc2ccccc2c1)N1CCN(Cc2c[nH]c3ccccc23)CC1	13.6 µM
CSc1nnc(NC(=O)c2nc(S(=O)(=O)Cc3cccc(C)c3)ncc2Cl)s1	> 80 µM (inactive)
CC(=O)c1ccc(NC(=O)COC(=O)c2ccccc2N=Nc2ccc(N(C)C)cc2)cc1	> 80 µM (inactive)
COc1ccc(C(=O)NCC(=O)N/N=C/c2ccc([N+](=O)[O-])o2)cc1OC	> 80 µM (inactive)
